Legend:
Assay type in all cases: cell-based
TLR4 = target: T1, TLR4 (Homo sapiens, UniProt O00206+Q9Y6Y9); experiment: LPS-induced TNF-α secretion (ELISA) in THP1-derived macrophages; details: 1 to 50 μM, FIG. 4D
T1 construct: endogenous in cells; host or cells: THP1-derived macrophages (PMA-differentiated)

TLR8 = target: T2, TLR8 (Homo sapiens, UniProt Q9NR97); experiment: TL8, R848 or CL075-induced TNF-α or IL-6 secretion in THP1-derived macrophages; details: TL8, R848 or CL075, dose-dependent manner, FIGS. 4E-4G
T2 construct: endogenous in cells; host or cells: THP1-derived macrophages (PMA-differentiated)
T2 sequence (Q9NR97 27-1041): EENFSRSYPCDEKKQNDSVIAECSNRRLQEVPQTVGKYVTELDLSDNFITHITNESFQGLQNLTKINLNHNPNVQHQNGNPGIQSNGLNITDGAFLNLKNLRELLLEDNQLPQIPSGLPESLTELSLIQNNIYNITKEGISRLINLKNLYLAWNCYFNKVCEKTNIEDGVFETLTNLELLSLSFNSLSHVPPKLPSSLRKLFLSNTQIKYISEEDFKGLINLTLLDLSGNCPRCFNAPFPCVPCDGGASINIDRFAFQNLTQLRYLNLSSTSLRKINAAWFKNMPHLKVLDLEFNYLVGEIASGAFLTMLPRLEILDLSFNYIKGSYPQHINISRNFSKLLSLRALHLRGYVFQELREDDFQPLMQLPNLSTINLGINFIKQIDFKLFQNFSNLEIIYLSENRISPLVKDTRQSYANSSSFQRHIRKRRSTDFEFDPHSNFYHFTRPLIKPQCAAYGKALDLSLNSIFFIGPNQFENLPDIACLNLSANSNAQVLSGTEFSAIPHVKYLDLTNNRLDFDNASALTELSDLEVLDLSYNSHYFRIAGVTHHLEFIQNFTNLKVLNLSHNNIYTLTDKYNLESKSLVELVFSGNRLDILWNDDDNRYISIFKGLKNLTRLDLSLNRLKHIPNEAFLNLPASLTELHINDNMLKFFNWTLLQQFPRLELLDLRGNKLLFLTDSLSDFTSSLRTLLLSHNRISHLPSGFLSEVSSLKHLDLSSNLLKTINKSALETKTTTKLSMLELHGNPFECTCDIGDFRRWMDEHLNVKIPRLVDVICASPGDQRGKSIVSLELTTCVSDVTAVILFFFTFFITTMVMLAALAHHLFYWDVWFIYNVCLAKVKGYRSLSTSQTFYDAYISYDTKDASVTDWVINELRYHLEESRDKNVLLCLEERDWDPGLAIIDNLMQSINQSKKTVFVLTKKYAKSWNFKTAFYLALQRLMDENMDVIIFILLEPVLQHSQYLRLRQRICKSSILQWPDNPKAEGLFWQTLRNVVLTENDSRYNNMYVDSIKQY

TLR3 = target: T3, TLR3 (Homo sapiens, UniProt O15455); experiment: poly(I:C)-induced TNF-α or IL-6 secretion in THP1-derived macrophages; details: dose-dependent manner, FIGS. 4E-4G
T3 construct: endogenous in cells; host or cells: THP1-derived macrophages (PMA-differentiated)
T3 sequence (O15455 24-904): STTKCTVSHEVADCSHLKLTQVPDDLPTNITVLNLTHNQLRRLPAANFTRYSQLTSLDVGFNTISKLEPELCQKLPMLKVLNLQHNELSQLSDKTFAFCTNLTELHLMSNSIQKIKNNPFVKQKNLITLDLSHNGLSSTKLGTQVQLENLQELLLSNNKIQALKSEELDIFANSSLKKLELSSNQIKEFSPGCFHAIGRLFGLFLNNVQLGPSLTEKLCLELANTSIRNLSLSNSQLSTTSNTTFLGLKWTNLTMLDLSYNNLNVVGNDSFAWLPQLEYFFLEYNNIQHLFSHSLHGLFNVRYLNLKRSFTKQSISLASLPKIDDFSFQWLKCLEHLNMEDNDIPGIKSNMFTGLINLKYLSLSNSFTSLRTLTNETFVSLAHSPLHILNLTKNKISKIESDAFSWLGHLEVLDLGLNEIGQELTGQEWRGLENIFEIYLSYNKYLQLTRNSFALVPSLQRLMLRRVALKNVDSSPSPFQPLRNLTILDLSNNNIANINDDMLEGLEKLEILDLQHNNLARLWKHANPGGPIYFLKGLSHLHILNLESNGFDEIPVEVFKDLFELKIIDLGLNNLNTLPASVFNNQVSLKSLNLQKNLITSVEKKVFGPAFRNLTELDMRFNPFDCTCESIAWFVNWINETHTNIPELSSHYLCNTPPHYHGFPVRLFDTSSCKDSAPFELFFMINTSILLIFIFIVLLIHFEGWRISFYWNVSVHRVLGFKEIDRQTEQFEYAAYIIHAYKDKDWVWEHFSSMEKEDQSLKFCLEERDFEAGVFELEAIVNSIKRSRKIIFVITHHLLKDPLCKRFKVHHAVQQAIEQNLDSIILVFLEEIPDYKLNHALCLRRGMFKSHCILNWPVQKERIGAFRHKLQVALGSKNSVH

TLR1/2 = target: T4, TLR1/2 (Homo sapiens, UniProt O60603+Q15399); experiment: Pam3CSK4-induced TNF-α secretion (ELISA) in THP1-derived macrophages; details: 1 to 50 μM, FIG. 4D
T4 construct: endogenous in cells; host or cells: THP1-derived macrophages (PMA-differentiated)
T4 sequence (Q15399 25-786): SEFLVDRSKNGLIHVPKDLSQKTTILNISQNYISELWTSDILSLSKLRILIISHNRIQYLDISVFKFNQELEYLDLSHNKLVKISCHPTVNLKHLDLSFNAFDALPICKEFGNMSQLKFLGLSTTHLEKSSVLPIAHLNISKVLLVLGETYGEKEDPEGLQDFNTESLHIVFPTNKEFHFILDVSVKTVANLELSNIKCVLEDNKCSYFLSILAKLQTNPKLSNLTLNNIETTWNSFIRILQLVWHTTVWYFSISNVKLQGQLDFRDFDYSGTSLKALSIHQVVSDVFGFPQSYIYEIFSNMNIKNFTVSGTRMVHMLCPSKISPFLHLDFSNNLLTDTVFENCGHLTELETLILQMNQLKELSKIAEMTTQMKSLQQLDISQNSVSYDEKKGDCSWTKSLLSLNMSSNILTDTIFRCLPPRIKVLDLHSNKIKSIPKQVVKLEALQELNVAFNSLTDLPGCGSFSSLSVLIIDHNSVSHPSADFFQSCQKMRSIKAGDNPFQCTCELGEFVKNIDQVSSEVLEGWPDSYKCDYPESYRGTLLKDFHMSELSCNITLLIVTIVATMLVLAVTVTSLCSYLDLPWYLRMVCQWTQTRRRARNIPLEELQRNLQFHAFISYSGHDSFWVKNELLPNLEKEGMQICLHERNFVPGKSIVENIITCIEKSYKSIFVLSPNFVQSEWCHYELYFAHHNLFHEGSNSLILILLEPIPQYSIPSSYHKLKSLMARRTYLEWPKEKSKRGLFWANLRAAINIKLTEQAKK
T4 sequence (O60603 21-784): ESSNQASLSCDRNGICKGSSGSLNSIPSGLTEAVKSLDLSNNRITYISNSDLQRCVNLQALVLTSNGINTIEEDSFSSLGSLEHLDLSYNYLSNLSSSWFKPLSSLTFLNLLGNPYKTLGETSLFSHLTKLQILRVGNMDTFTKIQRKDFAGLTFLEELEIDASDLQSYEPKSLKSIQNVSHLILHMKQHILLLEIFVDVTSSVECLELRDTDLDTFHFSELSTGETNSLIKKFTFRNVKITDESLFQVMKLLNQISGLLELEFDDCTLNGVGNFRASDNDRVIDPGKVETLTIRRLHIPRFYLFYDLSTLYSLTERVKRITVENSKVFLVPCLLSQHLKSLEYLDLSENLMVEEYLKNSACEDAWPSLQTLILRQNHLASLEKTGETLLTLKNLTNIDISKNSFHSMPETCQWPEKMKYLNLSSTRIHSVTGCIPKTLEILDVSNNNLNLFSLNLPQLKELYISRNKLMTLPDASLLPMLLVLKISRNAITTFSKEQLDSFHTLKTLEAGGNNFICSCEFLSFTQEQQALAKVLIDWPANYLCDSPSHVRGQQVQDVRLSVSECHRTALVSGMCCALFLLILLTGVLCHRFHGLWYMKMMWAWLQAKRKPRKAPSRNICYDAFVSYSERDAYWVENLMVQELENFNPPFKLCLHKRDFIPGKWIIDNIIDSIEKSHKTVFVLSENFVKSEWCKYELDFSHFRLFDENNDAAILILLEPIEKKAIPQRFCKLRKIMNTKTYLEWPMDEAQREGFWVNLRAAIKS

TLR2/6 = target: T5, TLR2/6 (Homo sapiens, UniProt O60603+Q9Y2C9); experiment: FSL-1-induced TNF-α secretion (ELISA) in THP1-derived macrophages; details: 1 to 50 μM, FIG. 4D
T5 construct: endogenous in cells; host or cells: THP1-derived macrophages (PMA-differentiated)
T5 sequence (O60603 21-784): as above
T5 sequence (Q9Y2C9 32-796): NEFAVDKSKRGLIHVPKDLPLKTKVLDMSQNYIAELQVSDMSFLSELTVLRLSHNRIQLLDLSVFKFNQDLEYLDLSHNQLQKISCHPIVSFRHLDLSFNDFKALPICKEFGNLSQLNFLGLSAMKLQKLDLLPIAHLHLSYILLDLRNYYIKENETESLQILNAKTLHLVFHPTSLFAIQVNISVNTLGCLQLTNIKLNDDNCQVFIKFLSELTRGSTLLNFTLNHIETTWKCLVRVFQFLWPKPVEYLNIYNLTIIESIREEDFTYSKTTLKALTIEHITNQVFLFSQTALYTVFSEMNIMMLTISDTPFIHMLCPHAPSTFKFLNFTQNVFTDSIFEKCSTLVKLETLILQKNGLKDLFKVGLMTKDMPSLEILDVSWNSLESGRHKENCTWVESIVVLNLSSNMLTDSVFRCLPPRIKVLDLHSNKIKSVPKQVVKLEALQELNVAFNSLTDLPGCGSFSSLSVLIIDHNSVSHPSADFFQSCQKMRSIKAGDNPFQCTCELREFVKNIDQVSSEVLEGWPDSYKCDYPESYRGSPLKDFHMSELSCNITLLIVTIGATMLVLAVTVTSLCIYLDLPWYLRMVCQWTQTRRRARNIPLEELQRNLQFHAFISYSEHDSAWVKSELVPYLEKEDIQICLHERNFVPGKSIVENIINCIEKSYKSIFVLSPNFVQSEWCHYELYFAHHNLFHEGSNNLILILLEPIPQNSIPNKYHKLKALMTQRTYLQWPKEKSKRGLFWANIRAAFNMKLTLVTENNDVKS

T1 sequence (O00206 24-839): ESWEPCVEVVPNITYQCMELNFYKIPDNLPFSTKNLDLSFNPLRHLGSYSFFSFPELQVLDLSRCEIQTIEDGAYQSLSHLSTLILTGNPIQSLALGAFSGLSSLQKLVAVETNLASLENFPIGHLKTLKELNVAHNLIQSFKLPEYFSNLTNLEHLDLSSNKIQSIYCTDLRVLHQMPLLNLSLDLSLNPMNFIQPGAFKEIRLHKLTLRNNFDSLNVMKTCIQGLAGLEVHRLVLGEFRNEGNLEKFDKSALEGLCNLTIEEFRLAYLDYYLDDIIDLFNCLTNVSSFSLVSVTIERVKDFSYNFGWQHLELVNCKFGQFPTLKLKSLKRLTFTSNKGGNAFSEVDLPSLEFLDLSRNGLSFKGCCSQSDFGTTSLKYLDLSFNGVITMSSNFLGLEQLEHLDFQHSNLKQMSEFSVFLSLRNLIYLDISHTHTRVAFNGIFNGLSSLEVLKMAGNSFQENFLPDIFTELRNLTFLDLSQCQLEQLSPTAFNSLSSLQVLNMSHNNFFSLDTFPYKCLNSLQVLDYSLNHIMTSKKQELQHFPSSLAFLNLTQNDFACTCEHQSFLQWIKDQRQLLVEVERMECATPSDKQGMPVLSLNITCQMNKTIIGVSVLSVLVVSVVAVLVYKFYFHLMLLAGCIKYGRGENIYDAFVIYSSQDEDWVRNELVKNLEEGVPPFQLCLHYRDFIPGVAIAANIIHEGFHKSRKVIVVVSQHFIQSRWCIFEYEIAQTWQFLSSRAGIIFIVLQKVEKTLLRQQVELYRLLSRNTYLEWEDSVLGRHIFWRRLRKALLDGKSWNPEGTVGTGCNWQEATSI
T1 sequence (Q9Y6Y9 17-160 limits assumed): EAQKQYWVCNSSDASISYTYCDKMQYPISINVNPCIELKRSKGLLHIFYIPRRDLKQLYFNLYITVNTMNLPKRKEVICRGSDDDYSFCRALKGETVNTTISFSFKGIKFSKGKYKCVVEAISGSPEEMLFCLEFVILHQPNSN

Nc1cccc(COc2cccnc2N)c1 [TAC5-a, 3-((3-aminobenzyl)oxy)pyridin-2-amine]
TLR4 (LPS)-mediated TNF-α secretion (TLR4): did not block
TLR8-mediated TNF-α or IL-6 secretion (TLR8): significantly inhibited
TLR3-mediated TNF-α or IL-6 secretion (TLR3): significantly inhibited
TLR1/2 (Pam3CSK4)-mediated TNF-α secretion (TLR1/2): did not block
TLR2/6 (FSL-1)-mediated TNF-α secretion (TLR2/6): did not block

Source: patent publication US11629155B2, “Small molecule antagonist compound TAC5 series having toll-like receptor 3/7/8/9 inhibitory function” (AJOU UNIVERSITY INDUSTRY-ACADEMIC COOPERATION FOUNDATION, priority 2018, dated 2023)
